pIC50: −log10 of the molar value. Calls of active or inactive are those of the source. The rule behind the calls is not given here.
Tests used:
Plasmodium falciparum [1] = experiment: Antiparasitic activity against intraerythrocytic form of chloroquine/pyrimethamine-resistant Plasmodium falciparum K1 infected in human RBC assessed as growth inhibition at 4.8 ug/ml preincubated for 48 hrs followed by [3H]-hypoxanthine addition measured after 24 hrs by liquid scintillation counting analysis relative to control; type: functional; conditions: read-out: GI
Trypanosoma cruzi [2] = experiment: Antiparasitic activity against Trypanosoma cruzi Tulahuen C4 intracellular amastigotes infected in rat L6 cells assessed as growth inhibition at 0.8 ug/ml after 96 hrs by CPRG/Nonidet reagent based photometric analysis relative to control; type: functional; conditions: Tulahuen C4, L6, 96 h, read-out: GI
Trypanosoma cruzi [3] = experiment: Antiparasitic activity against Trypanosoma cruzi Tulahuen C4 intracellular amastigotes infected in rat L6 cells after 96 hrs by CPRG/Nonidet reagent based photometric analysis; type: functional, cell-based; conditions: Tulahuen C4, L6, 96 h
[4] = Selectivity index, ratio of IC50 for rat L6 cells to IC50 for Trypanosoma cruzi Tulahuen C4 intracellular amastigotes infected in rat L6 cells; type: toxicity, cell-based; conditions: read-out: Ratio IC50
L6 [5] = experiment: Cytotoxicity against rat L6 cells assessed as cell viability after 72 hrs by Alamar blue assay; type: cell-based; conditions: L6, 72 h
[6] = system: Trypanosoma brucei rhodesiense; experiment: Antiparasitic activity against Trypanosoma brucei rhodesiense STIB 900 trypomastigote bloodstream form assessed as growth inhibition at 4.8 ug/ml after 72 hrs by resazurin dye-based fluorometric analysis relative to control; type: functional; conditions: STIB 900, 72 h, read-out: GI
[7] = system: Trypanosoma brucei rhodesiense; experiment: Antiparasitic activity against Trypanosoma brucei rhodesiense STIB 900 trypomastigote bloodstream form assessed as growth inhibition at 0.8 ug/ml after 72 hrs by resazurin dye-based fluorometric analysis relative to control; type: functional; conditions: STIB 900, 72 h, read-out: GI
Leishmania donovani [8] = experiment: Antiparasitic activity against Leishmania donovani MHOM-ET-67/L82 axenic amastigotes assessed as growth inhibition at 4.8 ug/ml after 72 hrs by resazurin dye-based fluorometric analysis relative to control; type: functional; conditions: MHOM-ET-67/L82, 72 h, read-out: GI
Leishmania donovani [9] = experiment: Antiparasitic activity against Leishmania donovani MHOM-ET-67/L82 axenic amastigotes assessed as growth inhibition at 0.8 ug/ml after 72 hrs by resazurin dye-based fluorometric analysis relative to control; type: functional; conditions: MHOM-ET-67/L82, 72 h, read-out: GI
Trypanosoma cruzi [10] = experiment: Antiparasitic activity against Trypanosoma cruzi Tulahuen C4 intracellular amastigotes infected in rat L6 cells assessed as growth inhibition at 4.8 ug/ml after 96 hrs by CPRG/Nonidet reagent based photometric analysis relative to control; type: functional; conditions: Tulahuen C4, L6, 96 h, read-out: GI
Plasmodium falciparum [11] = experiment: Antiparasitic activity against intraerythrocytic form of chloroquine/pyrimethamine-resistant Plasmodium falciparum K1 infected in human RBC assessed as growth inhibition at 0.8 ug/ml preincubated for 48 hrs followed by [3H]-hypoxanthine addition measured after 24 hrs by liquid scintillation counting analysis relative to control; type: functional; conditions: read-out: GI
Plasmodium falciparum [12] = experiment: Antiparasitic activity against intraerythrocytic form of chloroquine/pyrimethamine-resistant Plasmodium falciparum K1 infected in human RBC preincubated for 48 hrs followed by [3H]-hypoxanthine addition measured after 24 hrs by liquid scintillation counting analysis; type: functional
Trypanosoma cruzi [13] = experiment: Antiparasitic activity against Trypanosoma cruzi Tulahuen C4 intracellular amastigotes infected in rat L6 cells; type: functional, cell-based
Plasmodium falciparum [14] = experiment: Antiparasitic activity against intraerythrocytic form of chloroquine/pyrimethamine-resistant Plasmodium falciparum K1; type: functional
[15] = Selectivity index, ratio of IC50 for rat L6 cells to IC50 for intraerythrocytic form of chloroquine/pyrimethamine-resistant Plasmodium falciparum K1 infected in human RBC; type: toxicity; conditions: read-out: Ratio IC50
Leishmania donovani [16] = experiment: Antiparasitic activity against Leishmania donovani MHOM-ET-67/L82 axenic amastigotes; type: functional
L6 [17] = experiment: Cytotoxicity against rat L6 cells; type: cell-based
[18] = Selectivity index, ratio of IC50 for rat L6 cells to IC50 for Leishmania donovani MHOM-ET-67/L82 axenic amastigotes; type: toxicity; conditions: read-out: Ratio IC50
Leishmania donovani [19] = experiment: Antiparasitic activity against Leishmania donovani MHOM-ET-67/L82 axenic amastigotes after 72 hrs by Alamar blue assay; type: functional; conditions: MHOM-ET-67/L82, 72 h

## O=[N+]([O-])c1ccc(S(=O)(=O)N2CCc3ccccc32)cc1
Plasmodium falciparum [1]
  inhibition of growth at 4.8 µg/mL: 69.7%
Trypanosoma cruzi [2]
  inhibition of growth at 0.8 µg/mL: 34.7%
Trypanosoma cruzi [3]
  pIC50: 5.94
[4]
  selectivity ratio: 7.9
L6 [5]
  pIC50: 5.04
[6]
  inhibition of growth at 4.8 µg/mL: 98%
[7]
  inhibition of growth at 0.8 µg/mL: 27.4%
Leishmania donovani [8]
  inhibition of growth at 4.8 µg/mL: 100%
Leishmania donovani [9]
  inhibition of growth at 0.8 µg/mL: 37.6%
Trypanosoma cruzi [10]
  inhibition of growth at 4.8 µg/mL: 100%
Plasmodium falciparum [11]
  inhibition of growth at 0.8 µg/mL: 0%
Plasmodium falciparum [12]
  Activity: Active

## O=S(=O)(c1ccc(Cl)cc1)N1CCCc2ccccc21
[4]
  selectivity ratio: 1.28
Trypanosoma cruzi [13]
  pIC50: 4.80
Plasmodium falciparum [14]
  pIC50: 5.07
[15]
  selectivity ratio: 2.43
Leishmania donovani [16]
  pIC50: 4.72
L6 [17]
  pIC50: 4.69
[18]
  selectivity ratio: 1.09

## Cc1cc(C)c(C)c(S(=O)(=O)N2CCCc3ccccc32)c1C
Plasmodium falciparum [1]
  inhibition of growth at 4.8 µg/mL: 56.5%
Trypanosoma cruzi [2]
  inhibition of growth at 0.8 µg/mL: 15.5%
L6 [5]
  pIC50: 5.57
[6]
  inhibition of growth at 4.8 µg/mL: 3.7%
[7]
  inhibition of growth at 0.8 µg/mL: 2.7%
Leishmania donovani [19]
  pIC50: 6.44
Leishmania donovani [8]
  inhibition of growth at 4.8 µg/mL: 100%
Leishmania donovani [9]
  inhibition of growth at 0.8 µg/mL: 94.2%
Trypanosoma cruzi [10]
  inhibition of growth at 4.8 µg/mL: 60.3%
[18]
  selectivity ratio: 7.53
Plasmodium falciparum [11]
  inhibition of growth at 0.8 µg/mL: 3.1%

## CC1CCc2ccccc2N1S(=O)(=O)c1ccc(C(C)(C)C)cc1 (stereo not drawn)
Plasmodium falciparum [1]
  inhibition of growth at 4.8 µg/mL: 100%
Trypanosoma cruzi [2]
  inhibition of growth at 0.8 µg/mL: 28%
Trypanosoma cruzi [3]
  pIC50: 5.22
[4]
  selectivity ratio: 1.12
L6 [5]
  pIC50: 5.17
[6]
  inhibition of growth at 4.8 µg/mL: 0%
[7]
  inhibition of growth at 0.8 µg/mL: 8.2%
Leishmania donovani [19]
  pIC50: 5.67
Leishmania donovani [8]
  inhibition of growth at 4.8 µg/mL: 100%
Leishmania donovani [9]
  inhibition of growth at 0.8 µg/mL: 62%
[15]
  selectivity ratio: 4.57
Trypanosoma cruzi [10]
  inhibition of growth at 4.8 µg/mL: 100%
[18]
  selectivity ratio: 3.15
Plasmodium falciparum [11]
  inhibition of growth at 0.8 µg/mL: 79.9%
Plasmodium falciparum [12]
  pIC50: 5.82

## O=[N+]([O-])c1ccc(S(=O)(=O)N2CCCc3ccccc32)cc1
[4]
  selectivity ratio: 21.7
Trypanosoma cruzi [13]
  pIC50: 4.94
Plasmodium falciparum [14]
  pIC50: 5.08
[15]
  selectivity ratio: 29.9
Leishmania donovani [16]
  pIC50: < 3.57
L6 [17]
  pIC50: 3.61

## Cc1cc(C)c(C)c(S(=O)(=O)N2c3ccccc3CC2C)c1C (stereo not drawn)
Plasmodium falciparum [1]
  inhibition of growth at 4.8 µg/mL: 76.7%
Trypanosoma cruzi [2]
  inhibition of growth at 0.8 µg/mL: 0%
L6 [5]
  pIC50: 5.18
[6]
  inhibition of growth at 4.8 µg/mL: 0%
[7]
  inhibition of growth at 0.8 µg/mL: 0%
Leishmania donovani [19]
  pIC50: 6.64
Leishmania donovani [8]
  inhibition of growth at 4.8 µg/mL: 100%
Leishmania donovani [9]
  inhibition of growth at 0.8 µg/mL: 77.2%
Trypanosoma cruzi [10]
  inhibition of growth at 4.8 µg/mL: 75.2%
[18]
  selectivity ratio: 28.8
Plasmodium falciparum [11]
  inhibition of growth at 0.8 µg/mL: 5.5%

## Cc1cc(C)c(C)c(S(=O)(=O)N2c3ccccc3CCC2C)c1C (stereo not drawn)
Plasmodium falciparum [1]
  inhibition of growth at 4.8 µg/mL: 78%
Trypanosoma cruzi [2]
  inhibition of growth at 0.8 µg/mL: 9.7%
L6 [5]
  pIC50: 4.91
[6]
  inhibition of growth at 4.8 µg/mL: 0%
[7]
  inhibition of growth at 0.8 µg/mL: 0%
Leishmania donovani [19]
  pIC50: 6.21
Leishmania donovani [8]
  inhibition of growth at 4.8 µg/mL: 100%
Leishmania donovani [9]
  inhibition of growth at 0.8 µg/mL: 73.1%
Trypanosoma cruzi [10]
  inhibition of growth at 4.8 µg/mL: 69.3%
[18]
  selectivity ratio: 20
Plasmodium falciparum [11]
  inhibition of growth at 0.8 µg/mL: 6.7%

## CC1Cc2ccccc2N1S(=O)(=O)c1ccc(C(C)(C)C)cc1 (stereo not drawn)
Plasmodium falciparum [1]
  inhibition of growth at 4.8 µg/mL: 99.9%
Trypanosoma cruzi [2]
  inhibition of growth at 0.8 µg/mL: 7.7%
Trypanosoma cruzi [3]
  pIC50: 5.16
[4]
  selectivity ratio: 1.74
L6 [5]
  pIC50: 4.92
[6]
  inhibition of growth at 4.8 µg/mL: 6.4%
[7]
  inhibition of growth at 0.8 µg/mL: 0%
Leishmania donovani [19]
  pIC50: 5.82
Leishmania donovani [8]
  inhibition of growth at 4.8 µg/mL: 100%
Leishmania donovani [9]
  inhibition of growth at 0.8 µg/mL: 53.3%
[15]
  selectivity ratio: 8.1
Trypanosoma cruzi [10]
  inhibition of growth at 4.8 µg/mL: 100%
[18]
  selectivity ratio: 7.95
Plasmodium falciparum [11]
  inhibition of growth at 0.8 µg/mL: 52.8%
Plasmodium falciparum [12]
  pIC50: 5.82

## CC1Cc2ccccc2N1S(=O)(=O)c1ccc([N+](=O)[O-])cc1 (stereo not drawn)
Plasmodium falciparum [1]
  inhibition of growth at 4.8 µg/mL: 72.6%
Trypanosoma cruzi [2]
  inhibition of growth at 0.8 µg/mL: 19.4%
Trypanosoma cruzi [3]
  pIC50: 5.55
[4]
  selectivity ratio: 24.8
L6 [5]
  pIC50: 4.16
[6]
  inhibition of growth at 4.8 µg/mL: 68.2%
[7]
  inhibition of growth at 0.8 µg/mL: 6.9%
Leishmania donovani [8]
  inhibition of growth at 4.8 µg/mL: 79.5%
Leishmania donovani [9]
  inhibition of growth at 0.8 µg/mL: 41.7%
Trypanosoma cruzi [10]
  inhibition of growth at 4.8 µg/mL: 94.4%
Plasmodium falciparum [11]
  inhibition of growth at 0.8 µg/mL: 18%
Plasmodium falciparum [12]
  Activity: Active

## CCCCCCCCCCCCCCCCOP(=O)([O-])OCC[N+](C)(C)C [MILTEFOSINE]
Leishmania donovani [19]
  pIC50: 6.60
Leishmania donovani [8]
  inhibition of growth at 4.8 µg/mL: 93.3%
Leishmania donovani [9]
  inhibition of growth at 0.8 µg/mL: 60.1%

## O=S(=O)(c1ccc(Br)cc1)N1CCCc2ccccc21
[4]
  selectivity ratio: 0.53
Trypanosoma cruzi [13]
  pIC50: 4.86
Plasmodium falciparum [14]
  pIC50: 5.18
[15]
  selectivity ratio: 1.11
Leishmania donovani [16]
  pIC50: 4.67
L6 [17]
  pIC50: 5.13
[18]
  selectivity ratio: 0.34

## Cc1cc(C)c(C)c(S(=O)(=O)n2ccc3ccccc32)c1C
Plasmodium falciparum [1]
  inhibition of growth at 4.8 µg/mL: 41.4%
Trypanosoma cruzi [2]
  inhibition of growth at 0.8 µg/mL: 0.2%
L6 [5]
  pIC50: 5.05
[6]
  inhibition of growth at 4.8 µg/mL: 2.7%
[7]
  inhibition of growth at 0.8 µg/mL: 3.1%
Leishmania donovani [19]
  pIC50: 6.19
Leishmania donovani [8]
  inhibition of growth at 4.8 µg/mL: 100%
Leishmania donovani [9]
  inhibition of growth at 0.8 µg/mL: 76.4%
Trypanosoma cruzi [10]
  inhibition of growth at 4.8 µg/mL: 24.7%
[18]
  selectivity ratio: 13.4
Plasmodium falciparum [11]
  inhibition of growth at 0.8 µg/mL: 3.2%

## Cc1cc(C)c(C)c(S(=O)(=O)N2CCc3ccccc32)c1C
Plasmodium falciparum [1]
  inhibition of growth at 4.8 µg/mL: 41.8%
Trypanosoma cruzi [2]
  inhibition of growth at 0.8 µg/mL: 10.3%
L6 [5]
  pIC50: 4.90
[6]
  inhibition of growth at 4.8 µg/mL: 5.7%
[7]
  inhibition of growth at 0.8 µg/mL: 5.5%
Leishmania donovani [19]
  pIC50: 6.14
Leishmania donovani [8]
  inhibition of growth at 4.8 µg/mL: 100%
Leishmania donovani [9]
  inhibition of growth at 0.8 µg/mL: 61.3%
Trypanosoma cruzi [10]
  inhibition of growth at 4.8 µg/mL: 31.4%
[18]
  selectivity ratio: 17.2
Plasmodium falciparum [11]
  inhibition of growth at 0.8 µg/mL: 3.3%

## Cc1cc(C)c(C)c(S(=O)(=O)N2CCc3ccccc3C2)c1C
Plasmodium falciparum [1]
  inhibition of growth at 4.8 µg/mL: 18.8%
Trypanosoma cruzi [2]
  inhibition of growth at 0.8 µg/mL: 1.8%
L6 [5]
  pIC50: 5.44
[6]
  inhibition of growth at 4.8 µg/mL: 1.7%
[7]
  inhibition of growth at 0.8 µg/mL: 2%
Leishmania donovani [19]
  pIC50: 6.12
Leishmania donovani [8]
  inhibition of growth at 4.8 µg/mL: 100%
Leishmania donovani [9]
  inhibition of growth at 0.8 µg/mL: 63.3%
Trypanosoma cruzi [10]
  inhibition of growth at 4.8 µg/mL: 23.1%
[18]
  selectivity ratio: 4.8
Plasmodium falciparum [11]
  inhibition of growth at 0.8 µg/mL: 4.5%

— ChEMBL document CHEMBL4043153, “Lead selection of antiparasitic compounds from a focused library of benzenesulfonyl derivatives of heterocycles” (Bioorg Med Chem Lett, 2017)
